The source made the active and inactive calls.
What was measured:
[1] = target: T1, Heat shock factor protein 1 (Mus musculus, UniProt P38532); test: inhibition of MG132-induced HSE-luciferase signal, confirmation, cell-based, NIH3T3, luminescence, dose retest (AID 2382); format: functional;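 also: NIH3T3 fibroblasts with HSF1-driven luciferase reporter stressed by proteasome inhibitor MG132; luminescence from HSF1-driven luciferase expression after 8 hours of MG132 stress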
T1 sequence (P38532 whole entry): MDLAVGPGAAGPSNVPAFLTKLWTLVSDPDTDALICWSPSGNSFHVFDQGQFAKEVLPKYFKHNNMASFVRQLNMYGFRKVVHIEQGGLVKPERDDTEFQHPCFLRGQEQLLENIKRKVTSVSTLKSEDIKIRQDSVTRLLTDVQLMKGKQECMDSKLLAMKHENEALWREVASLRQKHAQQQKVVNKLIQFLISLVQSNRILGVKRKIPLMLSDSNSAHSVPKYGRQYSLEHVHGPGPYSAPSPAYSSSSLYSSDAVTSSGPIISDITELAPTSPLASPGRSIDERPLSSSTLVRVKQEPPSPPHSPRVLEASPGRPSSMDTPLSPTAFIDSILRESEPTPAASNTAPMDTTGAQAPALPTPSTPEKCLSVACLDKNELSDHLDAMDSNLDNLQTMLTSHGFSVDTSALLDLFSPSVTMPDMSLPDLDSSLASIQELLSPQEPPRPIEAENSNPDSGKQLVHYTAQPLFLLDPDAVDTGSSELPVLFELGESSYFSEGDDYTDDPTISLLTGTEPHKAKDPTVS

Cytochrome P450 2C19 = Cytochrome P450 2C19 (Homo sapiens, UniProt P33261); test: Cytochrome panel assay with activity outcomes. Panel member name: p450-cyp2c19 Compounds with AC50 equal or less than 10 uM are considered active; format: functional
Chain of Cytochrome P450 2C19 (P33261 whole entry): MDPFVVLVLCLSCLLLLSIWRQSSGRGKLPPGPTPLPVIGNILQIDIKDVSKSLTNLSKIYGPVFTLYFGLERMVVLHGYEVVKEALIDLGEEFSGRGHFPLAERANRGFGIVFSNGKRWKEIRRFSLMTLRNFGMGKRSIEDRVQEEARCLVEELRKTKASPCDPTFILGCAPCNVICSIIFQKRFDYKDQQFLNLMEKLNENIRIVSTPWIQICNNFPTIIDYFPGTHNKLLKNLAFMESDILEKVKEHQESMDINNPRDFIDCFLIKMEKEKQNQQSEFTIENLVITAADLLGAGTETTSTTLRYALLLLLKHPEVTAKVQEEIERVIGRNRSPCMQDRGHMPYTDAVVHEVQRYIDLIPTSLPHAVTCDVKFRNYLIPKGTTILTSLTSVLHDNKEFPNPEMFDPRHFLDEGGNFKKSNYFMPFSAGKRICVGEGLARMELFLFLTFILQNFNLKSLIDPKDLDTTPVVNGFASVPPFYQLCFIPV

Cytochrome P450 1A2 = target: T2, Cytochrome P450 1A2 (Homo sapiens, UniProt P05177);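 also: PubChem cytochrome P450 panel assay, CYP1A2 panel member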
T2 sequence (P05177 whole entry): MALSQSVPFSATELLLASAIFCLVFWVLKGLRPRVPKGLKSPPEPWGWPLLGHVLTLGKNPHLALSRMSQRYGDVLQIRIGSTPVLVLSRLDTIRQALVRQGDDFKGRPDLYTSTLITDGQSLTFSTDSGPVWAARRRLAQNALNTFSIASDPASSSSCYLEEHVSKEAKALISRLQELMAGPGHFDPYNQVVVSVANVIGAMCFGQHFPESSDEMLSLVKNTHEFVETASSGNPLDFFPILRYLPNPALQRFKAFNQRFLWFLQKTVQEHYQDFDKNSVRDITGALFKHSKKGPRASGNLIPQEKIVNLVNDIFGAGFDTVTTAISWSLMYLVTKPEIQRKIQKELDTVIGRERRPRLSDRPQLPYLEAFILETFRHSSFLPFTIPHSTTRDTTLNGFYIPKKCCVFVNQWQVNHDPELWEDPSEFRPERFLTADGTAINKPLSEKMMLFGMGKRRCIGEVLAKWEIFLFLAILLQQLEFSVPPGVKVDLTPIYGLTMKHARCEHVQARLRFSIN

Cytochrome P450 2C9 = Cytochrome P450 2C9 (Homo sapiens, UniProt P11712)
Chain of Cytochrome P450 2C9 (P11712 whole entry): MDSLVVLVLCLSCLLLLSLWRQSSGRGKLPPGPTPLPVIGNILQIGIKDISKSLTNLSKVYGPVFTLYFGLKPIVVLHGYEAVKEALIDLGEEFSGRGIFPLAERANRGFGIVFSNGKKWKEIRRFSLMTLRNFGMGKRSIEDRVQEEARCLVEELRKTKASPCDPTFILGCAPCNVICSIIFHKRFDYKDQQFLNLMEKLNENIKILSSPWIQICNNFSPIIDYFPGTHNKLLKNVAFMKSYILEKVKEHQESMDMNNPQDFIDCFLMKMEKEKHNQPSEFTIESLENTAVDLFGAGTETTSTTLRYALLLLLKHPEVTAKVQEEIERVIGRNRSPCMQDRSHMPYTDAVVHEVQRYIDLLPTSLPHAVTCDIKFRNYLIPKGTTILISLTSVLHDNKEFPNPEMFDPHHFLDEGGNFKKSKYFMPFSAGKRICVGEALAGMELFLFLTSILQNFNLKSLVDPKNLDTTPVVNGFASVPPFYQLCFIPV

Cytochrome P450 2D6 = Cytochrome P450 2D6 (Homo sapiens, UniProt P10635);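 also: CYP2D6 member of a cytochrome P450 panel assay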
Chain of Cytochrome P450 2D6 (P10635 whole entry): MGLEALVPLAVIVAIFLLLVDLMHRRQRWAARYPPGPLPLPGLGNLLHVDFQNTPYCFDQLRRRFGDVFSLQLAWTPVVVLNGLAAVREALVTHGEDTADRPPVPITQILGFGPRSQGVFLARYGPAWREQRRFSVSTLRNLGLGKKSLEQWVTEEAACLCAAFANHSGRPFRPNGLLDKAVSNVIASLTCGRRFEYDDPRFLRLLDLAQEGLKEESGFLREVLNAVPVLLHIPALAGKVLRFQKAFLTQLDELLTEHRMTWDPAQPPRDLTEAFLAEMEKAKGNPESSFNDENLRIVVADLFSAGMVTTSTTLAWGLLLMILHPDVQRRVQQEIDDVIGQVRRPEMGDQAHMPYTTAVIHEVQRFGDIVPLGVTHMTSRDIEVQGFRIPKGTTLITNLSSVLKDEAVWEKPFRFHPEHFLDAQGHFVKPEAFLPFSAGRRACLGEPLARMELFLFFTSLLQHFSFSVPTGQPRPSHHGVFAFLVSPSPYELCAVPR

Cytochrome P450 3A4 = Cytochrome P450 3A4 (Homo sapiens, UniProt P08684);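 also: CYP3A4 tested as one member of a cytochrome P450 panel screen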
Chain of Cytochrome P450 3A4 (P08684 whole entry): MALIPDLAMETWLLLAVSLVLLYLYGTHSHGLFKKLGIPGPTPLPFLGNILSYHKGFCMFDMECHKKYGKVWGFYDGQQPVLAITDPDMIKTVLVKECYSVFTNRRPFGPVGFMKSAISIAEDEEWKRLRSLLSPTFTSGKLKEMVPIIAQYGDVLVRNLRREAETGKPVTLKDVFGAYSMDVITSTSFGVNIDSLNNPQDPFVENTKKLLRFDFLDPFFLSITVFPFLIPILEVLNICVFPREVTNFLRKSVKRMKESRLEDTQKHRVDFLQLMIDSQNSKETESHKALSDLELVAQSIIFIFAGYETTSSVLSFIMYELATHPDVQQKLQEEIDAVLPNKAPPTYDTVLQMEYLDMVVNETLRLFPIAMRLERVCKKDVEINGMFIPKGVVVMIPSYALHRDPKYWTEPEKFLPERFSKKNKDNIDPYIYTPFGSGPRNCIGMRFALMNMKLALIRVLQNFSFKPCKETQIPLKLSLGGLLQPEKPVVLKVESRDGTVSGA

Streptococcus = test: Group A Streptococcus viability loss, dose response, counter-screen for streptokinase expression inhibitor project, luminescence, BacTiterGlo (AID 1915); format: functional, organism-based;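 also: potency for reduction of bacterial viability or growth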
[2] = inhibitors of SNCA 5'UTR-driven reporter translation, confirmation, H4 neuroglioma cells, luminescence (AID 1988); format: functional, cell-based
Streptokinase A = target: T3, Streptokinase A (Streptococcus pyogenes serotype M1, UniProt P10520); test: S. pyogenes streptokinase expression inhibitors, potency, dose response, plasminogen activation absorbance, OD405 (AID 1914); format: functional, Streptococcus pyogenes M1 GAS;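 also: secreted streptokinase activity via plasminogen activation per viability signal from cell pellet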
T3 sequence (P10520 whole entry): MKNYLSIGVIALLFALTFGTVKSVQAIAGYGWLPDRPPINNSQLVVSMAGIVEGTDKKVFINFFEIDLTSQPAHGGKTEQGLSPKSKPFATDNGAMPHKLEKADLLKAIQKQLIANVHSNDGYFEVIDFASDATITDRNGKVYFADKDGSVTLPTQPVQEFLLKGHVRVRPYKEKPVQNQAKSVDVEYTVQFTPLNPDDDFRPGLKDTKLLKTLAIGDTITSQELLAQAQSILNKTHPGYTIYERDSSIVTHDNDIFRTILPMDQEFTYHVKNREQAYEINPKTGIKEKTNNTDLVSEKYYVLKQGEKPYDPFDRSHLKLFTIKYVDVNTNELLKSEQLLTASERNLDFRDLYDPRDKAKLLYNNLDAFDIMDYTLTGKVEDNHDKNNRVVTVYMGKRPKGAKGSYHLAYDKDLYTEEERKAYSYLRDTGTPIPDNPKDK

[3] = Luminescence Cell-Based Dose Response HTS to Identify Inhibitors of 5'UTR Stem-Loop Driven Prion Protein mRNA Translation in H4 Neuroglioblastoma Cells. [Related pubchem assays: 1827 (Project Summary), 1813 (Primary HTS)]; format: functional
[4] = system: Streptococcus sp. 'group A'; test: growth inhibition of control SK(-) GAS strain, dose response, counter-screen for streptokinase expression inhibitor project, luminescence, kanamycin, BacTiterGlo, confirmation (AID 1900); format: functional, organism-based

COc1ccc(/C=N/NC(=O)Nc2cccc3nsnc23)cc1OC
EC50 [1]: 9.51 µM (active)

CCCn1c(N)c(C(=O)CSc2nc3ccccc3c(=O)n2Cc2ccccc2)c(=O)[nH]c1=O
EC50 [1]: > 195 µM (not active)

COc1ccc(-n2nc3ccccc3n2)cc1
EC50 [1]: > 195 µM (not active)

COC(=O)[C@@]1(Cc2ccc(F)cc2)[C@H]2c3cc(C(=O)N(C)C)n(Cc4c(CO)ncc(C)c4O)c3C[C@H]2CN1C(=O)c1ccccc1
AC50 (Cytochrome P450 2C19; read-out: AC50): 25.1 µM (inconclusive) | AC50 (Cytochrome P450 1A2): 25.1 µM (inconclusive)

NS(=O)(=O)c1ccc(/N=N\c2cccnc2O)cc1
AC50 (Cytochrome P450 2C9): 3.16 µM (inconclusive) | AC50 (Cytochrome P450 2C19; read-out: AC50): 3.98 µM (inconclusive) | AC50 (Cytochrome P450 1A2): 0.501 µM (inconclusive)

C#CCCCO/N=C1/C[C@@H](O)[C@@H](O)[C@@H]2[C@@H]3C(=O)N(Cc4ccccc4)C(=O)[C@H]3CC[C@@H]12
AC50 (Cytochrome P450 2C19): inconclusive

COc1ccccc1CNc1ncnc2ccc(-c3cccc(C#N)c3)cc12
AC50 (Cytochrome P450 2D6): 2.51 µM (inconclusive)

O=S(=O)(NCCNC/C=C\c1ccc(Br)cc1)c1cccc2cnccc12
AC50 (Cytochrome P450 2D6): 25.1 µM (inconclusive) | AC50 (Cytochrome P450 2C19; read-out: AC50): 15.8 µM (inconclusive)

COc1cccc(C(=O)Nc2ccc(NC(=O)c3ccco3)cn2)c1
AC50 (Cytochrome P450 2D6): 20 µM (inconclusive) | AC50 (Cytochrome P450 1A2): 25.1 µM (inconclusive)

O=C(CCCC(=O)N(c1ccc2c(c1)OCCO2)C(C(=O)NC1CCCCC1)c1ccc(Cl)cc1)Nc1ccccn1 (stereo unspecified)
EC50 [1]: > 195 µM (not active)

Cc1cccc(CNc2ncnc3ccc(-c4cccc(C#N)c4)cc23)c1
AC50 (Cytochrome P450 2C9): 0.794 µM (inconclusive)

O=C(c1cccc(F)c1)N1CCC2(CCCN(c3ccncc3)C2)CC1
AC50 (Cytochrome P450 2D6): 15.8 µM (inconclusive) | AC50 (Cytochrome P450 1A2): 31.6 µM (inconclusive)

Cc1cccc(NC(S)=NNC(=O)CC(C)O)c1C (stereo unspecified)
AC50 (Cytochrome P450 2C9): 0.00708 µM (inconclusive)

Cc1cc(C)cc(NC(=O)CC(=N)NO)c1
AC50 (Cytochrome P450 3A4): 28.2 µM (inconclusive)

CN(C)c1ccc(-c2ccc3ncnc(N4CCNCC4)c3c2)cc1
AC50 (Cytochrome P450 2C19; read-out: AC50): 25.1 µM (inconclusive)

CCOC(=O)c1nnc(O)c2ccccc12
EC50 [1]: > 195 µM (not active)

Cc1cccc(-c2ocnc2C(=O)N2CCN(C(=O)c3cccs3)CC2)c1
EC50 [1]: > 195 µM (not active)

CC(C)Oc1ccc(N2CC(C(=O)OCC(=O)NCc3ccccc3)CC2=O)cc1 (stereo unspecified)
AC50 (Cytochrome P450 2D6): 22.4 µM (inconclusive) | AC50 (Cytochrome P450 2C9): 28.2 µM (inconclusive)

O=C(O)c1csc(-c2ccccc2)n1
EC50 [1]: > 195 µM (not active)

Cc1cc(NC(=O)Nc2ccc(F)cc2)no1
AC50 (Cytochrome P450 2C9): 15.8 µM (inconclusive)

CCCN1C(=O)C(Cc2nc3ccccc3c(=O)n2C)c2ccccc21 (stereo unspecified)
AC50 (Cytochrome P450 2D6): 17.8 µM (inconclusive) | AC50 (Cytochrome P450 2C19; read-out: AC50): 0.0562 µM (inconclusive) | AC50 (Cytochrome P450 1A2): 25.1 µM (inconclusive)

CC(=O)c1cccc(NC(=O)CN2C(S)=NC(C)(C)CC2C)c1 (stereo unspecified)
EC50 [1]: > 195 µM (not active)

Cc1noc(NS(=O)(=O)c2ccc(NC(=O)CC34CC5CC(CC(Br)(C5)C3)C4)cc2)c1C
AC50 (Cytochrome P450 2C9): 22.4 µM (inconclusive) | AC50 (Cytochrome P450 2C19): inconclusive

COC(=O)c1cn(NC(=O)CCC2CCCC2)c(=O)c2ccccc12
EC50 [1]: > 195 µM (not active)

CC(=O)Nc1cccc(-n2c(=O)n(Cc3ccccc3)c(=O)c3[nH]cnc32)c1
EC50 [1]: > 195 µM (not active)

O=C(O)[C@H]1CCCC[C@@H]1c1c2ccc(=O)c(O)c-2oc2c(O)c(O)ccc12
AC50 (Cytochrome P450 2C9): 6.31 µM (inconclusive) | AC50 (Cytochrome P450 2C19; read-out: AC50): 2.51 µM (inconclusive)

Cc1cccc(OCCCC(=O)Nc2ccccc2C(F)(F)F)c1
AC50 (Cytochrome P450 2D6): 25.1 µM (inconclusive)

Cc1nc(SCC(=O)Nc2ccc(N3CCOCC3)cc2)nc(C)c1C
AC50 (Cytochrome P450 2C9): 12.6 µM (inconclusive)

O=C(O)c1ccccc1Nc1cccc(C(F)(F)F)c1 [FLUFENAMIC ACID]
AC50 (Cytochrome P450 2C9): 10 µM (inconclusive)

COc1ccc(Br)cc1/C=C/c1ccc2cccc(O)c2n1
EC50 (Streptococcus): 6.48 µM (active) | EC50 [2]: > 120 µM (not active) | EC50 (Streptokinase A): > 150 µM (not active) | EC50 [3]: 13.4 µM (active) | EC50 [4]: 0.246 µM (active)

CCOC(=O)c1ccc(OC(=O)CCCCCNC(=N)N)cc1 [GABEXATE]
AC50 (Cytochrome P450 1A2): 15.8 µM (inconclusive)

CCCCCCCCN[C@@H](C)[C@H](O)c1ccc(SC(C)C)cc1 [SULOCTIDIL]
AC50 (Cytochrome P450 2C9): 0.00501 µM (inconclusive) | AC50 (Cytochrome P450 2C19; read-out: AC50): 10 µM (inconclusive)

CCOC(=O)N1CCN(c2c(O)nc3ccc(Cl)cc3c2-c2ccccc2)CC1
AC50 (Cytochrome P450 1A2): 0.158 µM (inconclusive)

CNC(=O)[C@H](C)[C@H]1C[C@]1(C)[C@H](NC(=O)OCc1ccccc1)c1ccccc1
AC50 (Cytochrome P450 1A2): 20 µM (inconclusive)

CN(C)c1ncc2nc(-c3cccs3)c(=O)n(C)c2n1
AC50 (Cytochrome P450 3A4): 31.6 µM (inconclusive)

COc1ccc(Nc2nc(Nc3ccc(OC)cc3)nc(-n3[nH]c(=O)c(C)c3C)n2)cc1
EC50 [1]: 22.3 µM (active)

O=C1c2cccnc2C(=O)N1Cc1ccc(F)cc1
AC50 (Cytochrome P450 1A2): 17.8 µM (inconclusive)

CCCOc1ccc2cc(C(=O)NCc3ccccc3)c(=O)oc2c1
EC50 [1]: 42 µM (active)

O=C(N[C@@H](c1ccccc1)[C@@H]1C[C@H]1C(=O)O)OCc1ccccc1
AC50 (Cytochrome P450 1A2): 20 µM (inconclusive)

c1ccc2c(c1)CCCc1cc(NCCN3CCOCC3)nnc1-2
AC50 (Cytochrome P450 3A4): 6.31 µM (inconclusive)

CN(C)CCOC(=O)C1(c2ccccc2)CCOCC1
AC50 (Cytochrome P450 2C19; read-out: AC50): 20 µM (inconclusive)

Cc1ccc(F)cc1NC(=O)CCNC(=O)c1ccc([N+](=O)[O-])cc1
EC50 [1]: > 195 µM (not active)

Cn1c(=O)c2c(nc(Sc3ncnn3CC(=O)N3CCOCC3)n2C)n(C)c1=O
EC50 [1]: > 195 µM (not active)

COc1ccc2[nH]cc(CCNc3nc(-c4ccoc4)nc4ccccc34)c2c1
AC50 (Cytochrome P450 2C9): 1 µM (inconclusive)

Cn1cc(-c2nc3cnc(N4CCNCC4)nc3n(C3CC3)c2=O)c2ccccc21
AC50 (Cytochrome P450 3A4): 7.94 µM (inconclusive)

CN1CCN(c2ncc3nc(-c4cn(C)c5ccccc45)c(=O)n(-c4ccccc4)c3n2)CC1
AC50 (Cytochrome P450 1A2): 15.8 µM (inconclusive)

CC(=O)c1ccc(NC(=O)C2CC(c3ccc(F)cc3)=NO2)cc1 (stereo unspecified)
AC50 (Cytochrome P450 2C9): 1.12 µM (inconclusive) | AC50 (Cytochrome P450 2C19; read-out: AC50): 17.8 µM (inconclusive) | AC50 (Cytochrome P450 1A2): 0.00794 µM (inconclusive)

N=c1ccn2c(n1)O[C@H]1[C@@H](OP(=O)(O)O)[C@H](CO)O[C@H]12
AC50 (Cytochrome P450 2C19): inconclusive
